In the assay the target is FGFR4 (Homo sapiens, UniProt P22455). As to the kind of experiment: Cell FGFR4 (ECHO) Assay: inhibition of transiently expressed FGFR4 phosphorylation in Cos-1 cells. The format is cell-based. Details: expressed in transfected cells; host or cells: Cos-1. Conditions: Cos-1 cells transiently expressing FGFR4, 1 hour incubation; read-out: IC50 (inhibition of phosphorylated FGFR4). From the text: Cell based inhibition of transiently expressed FGFR4 phosphorylation via use of ECHO technology (measured using phospho-specific primary and fluorescent secondary antibodies).
FGFR4, sequence (P22455 22-802): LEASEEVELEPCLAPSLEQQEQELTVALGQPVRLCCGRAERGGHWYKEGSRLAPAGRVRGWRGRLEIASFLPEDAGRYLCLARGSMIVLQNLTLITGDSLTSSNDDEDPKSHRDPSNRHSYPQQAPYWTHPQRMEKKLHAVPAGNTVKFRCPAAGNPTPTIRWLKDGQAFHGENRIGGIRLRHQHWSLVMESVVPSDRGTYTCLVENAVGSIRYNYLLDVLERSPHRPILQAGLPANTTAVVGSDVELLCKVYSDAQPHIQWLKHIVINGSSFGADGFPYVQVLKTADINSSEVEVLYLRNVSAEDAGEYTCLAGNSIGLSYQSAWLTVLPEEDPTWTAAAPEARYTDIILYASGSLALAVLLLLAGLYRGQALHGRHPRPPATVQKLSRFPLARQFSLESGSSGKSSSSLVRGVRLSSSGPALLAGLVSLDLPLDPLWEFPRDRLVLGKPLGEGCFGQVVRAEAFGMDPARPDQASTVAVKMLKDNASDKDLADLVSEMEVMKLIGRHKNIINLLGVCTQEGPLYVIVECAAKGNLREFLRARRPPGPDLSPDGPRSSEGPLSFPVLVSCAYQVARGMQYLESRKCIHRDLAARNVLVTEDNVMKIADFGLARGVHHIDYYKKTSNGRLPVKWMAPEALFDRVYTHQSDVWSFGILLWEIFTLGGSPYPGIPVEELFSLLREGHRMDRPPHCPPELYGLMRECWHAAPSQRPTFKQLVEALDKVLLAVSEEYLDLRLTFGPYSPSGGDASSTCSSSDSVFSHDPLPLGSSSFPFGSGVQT
This assay is designed to detect inhibitors of transiently expressed FGFR4 phosphorylation by antibody staining of fixed cells detected using ArrayScan technology. Cos-1 cells were routinely passaged in DMEM (Gibco BRL, 41966) plus 3% foetal calf serum (FCS), 1% L-glutamine (Gibco BRL, 25030) to a confluence of 80%. To undertake the assay, Cos-1 cells were harvested at 90-95% confluence for cell transfection. For each 96-well plate, 24 μL Lipofectamine 2000 was added to 809 μL OptiMEM and incubated at room temperature for 5 minutes. For each 96 well plate, 20 μg 3′ FLAG tagged FGFR4/pcDNA3.1 (MSD 6273) was diluted with OptiMEM to a total volume of 833 μL. Equal volumes of DNA and Lipofectamine 2000 were combined (DNA:Lipid=1:1.2 ratio) and incubated at room temperature for 20 minutes.
The harvested Cos-1 cells are counted using a coulter counter and diluted further with 1% FCS/DMEM to 1.2×10^5 cells/mL. For each 96-well, 8.33 mL cells were required. […]
Media was removed from the wells using vacuum aspiration; cells were fixed by adding 50 μL of 100% methanol to each well and incubated at room temperature for 20 minutes. […] The plates were read on an Arrayscan (Cellomics). […]

Several values for one entry are separate records, joined by “and”; a condition that tells them apart may be missing. Equal entries are not always repeated.

In the case of `COc1cc(CCc2cc(NC(=O)c3ccc(N4CCN(C)[C@H](C)C4)cc3)[nH]n2)cc(OC)c1` [Example 1b, (R)—N-(3-(3,5-Dimethoxyphenethyl)-1H-pyrazol-5-yl)-4-(3,4-dimethylpiperazin-1-yl)benzamide], the half-maximal inhibitory concentration (IC50) is 29 nM and 33 nM and 45 nM and 28 nM.

The values are drawn from patent US20090318468A1, “PYRAZOLE COMPOUNDS 436” (AstraZeneca AB, priority 2008, published 2009).
